# Measurements from US7285687B2 (priority 2002, dated 2007).
# Key:
# CB2 receptor = target: T1, CB2 receptor (Homo sapiens, UniProt P34972); test: CB2 binding procedure, displacement of [3H]CP-55,940 from membranes of transfected CHO cells; conditions: for CB1/CB2: ratio of CB1 Ki to CB2 Ki; for Ki: Table 6, read-out: CB2 KI
# T1 construct: expressed in transfected cells
# Procedure: Membranes for CB2 binding were obtained from CHO cells. The transfected cell line was maintained in Dublecco's Modified Eagle Medium (Gibco BRL, Grand Island, N.Y.) with 10% fetal clone II (HyClone Laboratories, Inc., Logan, Utah) plus 0.3 to 0.5 mg/ml G418 (to maintain selective pressure) under 5% CO2 at 37% C. Cells were harvested with 1 mM EDTA in phosphate-buffered saline and were centrifuged at 1000×g for 5 min at 4% C. The supernatant was saved and the P1 pellet was resuspended in centrifugation buffer. Homogenization and centrifugation were repeated twice and the combined supernatant fractions were centrifuged at 40,000×g for 30 min at 4% C. The P2 pellet was resuspended in centrifugation buffer 2 (Tris HCl, 50 mM; EDTA, 1 mM; and MgCl2, 3 mM, pH 7.4) to a protein concentration of approximately 2 mg/ml. Protein concentrations were determined by the method of Bradford (1976) using Bio-Rad Protein Assay (Bio-Rad, Richmond, Calif.) and BSA standards (fatty acid free, Sigma Chemical Co., St. Louis, Mo.). The membrane preparation was divided into amounts convenient for binding assays and frozen rapidly in dry ice and stored at −80% C.
# Binding was initiated by the addition of 50•g of quickly thawed P2 membranes to test tubes containing [^3H]CP-55,940 (final reaction concentration 0.5 nM), an appropriate concentration of unlabeled CP-55,940 or test drug, and sufficient quantity of assay buffer (50 mM Tris-HCl, 1 mM EDTA, 3 mM MgCl2, 5 mg/ml bovine serum albumin, pH 7.4) to bring the total incubation volume to 0.5 ml. Concentration of [^3H]CP-55,940 in saturation studies ranged from 50 to 10,000 pM. […] CP-55,940 and all cannabinoid analogs were-prepared by suspension in assay buffer from a 1 mg/ml ethanolic stock without evaporation of the ethanol (final concentration of no more than 0.4%). In competition studies, analog concentrations ranged from 0.1 nM to 10•M. After incubation at […] for 1 hr, binding was terminated by the addition of 2 ml of ice-cold wash buffer (50 mM Tris-HCl and 1 mg/ml BSA) and vacuum filtration through pre-treated filters in a 12-well sampling manifold (Millipore, Bedford, Mass.). Reaction vessels were washed once with 2 ml of ice-cold wash buffer. Filters were placed into 7-ml plastic scintillation vials (RPI Corp., Mount Prospect, Ill.) with 4 ml of Budget-Solve (RPI Corp.). After shaking for 30 min, the radioactivity present was determined by liquid scintillation spectrometry. Three reaction vessels were used for each drug concentration in each assay. The results represent the combined data of three independent experiments. All assays were performed in siliconized test tubes, which were prepared by air drying (12 hr) inverted borosilicate tubes after two rinses with a 0.1% solution of AquaSil (Pierce, Rockford, Ill.). The GF/C glass-fiber filters (2.4 cm, Baxter, McGaw Park, Ill.) were pre-treated in a 0.1% solution of pH 7.4 polyethylenimine (Sigma Chemical Co.) for at least 6 hr.
# (§1) In addition, multiple linear regression was used to calculate the overall degree of relationship between CB1 binding affinity and potency in the mouse measures for all active cannabinoids. […] Ki values for CB1 and CB2 binding were obtained from Scatchard displacement analysis as determined via EBDA program of the KELL software package (Biosoft, Milltown, N.J.).
# CB1 receptor = target: T2, CB1 receptor (Rattus norvegicus, UniProt P20272); test: CB1 binding procedure, displacement of [3H]CP 55,940 from rat whole-brain P2 membranes; conditions: for Ki: Table 6, read-out: CB1 KI
# T2 construct: whole brain was homogenized and centrifuged; from tissue; host or cells: whole brain of male Sprague-Dawley rats, P2 membrane fraction
# Procedure: Male ICR mice (25-32 g), obtained from Harlan (Dublin, Va.), were housed in groups of five. All animals were kept in a temperature-controlled (20-22° C.) environment with a 12-hour light-dark cycle (lights on at 7 a.m.). Separate mice were used for testing each drug dose in the in vivo behavioral procedures. Brain tissue for binding studies was obtained from male Sprague-Dawley rats (150-200 g) purchased from Harlan Laboratories (Dublin, Va.).
# The methods used for tissue preparation and binding have been described previously (Compton et al., 1993) and are similar to those described by Devane et al. (1988). All assays, as described briefly below, were performed in triplicate, and the results represent the combined data from three to six individual experiments.
# Following decapitation and rapid removal of the brain, whole brain was homogenized and centrifuged. The resulting pellet was termed P1. The supernatant was saved and combined with the two subsequent supernatants obtained from washing of the P1 pellet. The combined supernatant fractions were centrifuged, resulting in the P2 pellet. After further incubation and centrifuging, this pellet was resuspended in assay buffer to a protein concentration of approximately 2 mg/ml. The membrane preparation was quickly frozen in a bath solution of dry ice and 2-methylbutane (Sigma Chemical Co., St. Louis, Mo.), then stored at −80° C. for no more than 2 weeks. Prior to performing a binding assay an aliquot of frozen membrane was rapidly thawed and protein values determined by the method of Bradford (1976).
# Binding was initiated by the addition of 150•g of P2 membrane to test tubes containing 1 nM of [^3H] CP 55,940 (79 Ci/mmol) and a sufficient quantity of buffer to bring the total incubation volume to 1 ml. […] Following incubation at 30° C. for 1 hr, binding was terminated by addition of ice cold buffer and vacuum filtration through pretreated filters in a 12-well sampling manifold (Millipore, Bedford, Mass.). After washing, filters were placed into plastic scintillation vials (Packard, Downer Grove, Ill.) and shaken. The quantity of radioactivity present was determined by liquid scintillation spectrometry.
# as §1
# T2 sequence (P20272 whole entry): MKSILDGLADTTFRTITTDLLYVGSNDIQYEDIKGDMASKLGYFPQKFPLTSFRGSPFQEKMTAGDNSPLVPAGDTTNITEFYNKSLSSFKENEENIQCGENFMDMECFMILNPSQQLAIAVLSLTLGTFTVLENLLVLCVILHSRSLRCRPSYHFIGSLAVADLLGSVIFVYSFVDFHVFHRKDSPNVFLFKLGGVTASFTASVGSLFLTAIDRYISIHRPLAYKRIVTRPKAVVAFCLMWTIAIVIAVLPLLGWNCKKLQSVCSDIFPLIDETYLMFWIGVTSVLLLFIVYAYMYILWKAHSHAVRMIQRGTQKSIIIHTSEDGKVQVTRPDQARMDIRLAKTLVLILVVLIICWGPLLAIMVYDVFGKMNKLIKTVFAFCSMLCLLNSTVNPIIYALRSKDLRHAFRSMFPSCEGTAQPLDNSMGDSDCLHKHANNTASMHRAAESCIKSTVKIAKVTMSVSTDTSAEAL
# T1 sequence (P34972 whole entry): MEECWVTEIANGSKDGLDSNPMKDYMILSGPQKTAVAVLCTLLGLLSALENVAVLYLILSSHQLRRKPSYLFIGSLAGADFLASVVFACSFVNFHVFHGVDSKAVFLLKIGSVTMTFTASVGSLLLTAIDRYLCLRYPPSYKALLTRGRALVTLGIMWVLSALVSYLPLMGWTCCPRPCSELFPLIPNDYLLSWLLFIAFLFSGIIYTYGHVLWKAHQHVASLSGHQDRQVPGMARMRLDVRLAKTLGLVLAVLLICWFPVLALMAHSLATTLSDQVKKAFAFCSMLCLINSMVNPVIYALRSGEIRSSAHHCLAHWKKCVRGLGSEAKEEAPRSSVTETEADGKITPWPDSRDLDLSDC
Compound,CB1/CB2 (CB2 receptor),other results
"CCCCCCC(C)(C)c1cc(O)c(C2CCCC(C)C2)c(O)c1 (mixture of isomers) [O-1657, 2-(3-Methylcyclohexyl)-5-(1′,1′-dimethylheptyl)-resorcinol]",17,–
"CCCCCCC(C)(C)c1cc(O)c(C2CCCC(C)C2)c(O)c1 (single isomer, unassigned) [O-1798B, 2-(3-Methylcyclohexyl)-5-(1′,1′-dimethylheptyl)-resorcinolisomer B]",8,Ki (CB1 receptor): 4.33 ± 0.58 nM
"CCCCCCC(C)(C)c1cc(OC)c(C2(O)CCC(O)CC2)c(OC)c1 (single isomer, unassigned) [O-2116A, 1-[4-(1,1-Dimethyl-heptyl)-2,6-dimethoxy-phenyl]-cyclohexane-1,4-olol (A)]",21,–
"C=C(C)[C@@H]1CCC(C)=CC1c1c(O)cccc1O (single isomer, unassigned; (-)) [O-1847, (-)-2-(3-3,4-trans-p-menthadien-(1,8)-yl)-resorcinol]",–,Ki (CB1 receptor): > 10000 nM
"C=C(C)[C@@H]1CCC(C)=CC1c1ccc(O)cc1O (single isomer, unassigned; (-)) [O-1848, (-)-4-(3-3,4-trans-p-menthadien-(1,8)-yl)-resorcinol]",–,Ki (CB1 receptor): > 10000 nM
"C=C(C)[C@@H]1CCC(C)=CC1c1c(O)c(I)c(C)c(I)c1O (single isomer, unassigned; (-)) [O-1868, (-)-2-(3-3,4-trans-p-menthadien-(1,8)-yl)-1,6-dipdoorcinol]",–,Ki (CB1 receptor): > 10000 nM
"CCCCCCC(C)(C)c1cc(O)c(C2CCCC(C)C2)c(O)c1 (single isomer, unassigned; isomer a) [O-1797A, 2-(3-Methylcyclohexyl)-5-(1′,1′-dimethylheptyl-resorcinol isomer A]",12,Ki (CB2 receptor): 0.44 ± 0.03 nM
"CCCCCCC(C)(C)c1cc(O)c([C@H]2CCCC(C)C2)c(O)c1 (stereo in doubt) [O-1826, 2-(3R-Methylcyclohexyl)-5-(1′,1′-dimethylheptyl)-resorcinol]",50,–
"CCCCCCC(C)(C)c1cc(OC)c(C2(O)CCC[C@@H](C)C2)c(OC)c1 (stereo in doubt) [compound 2137, 1-[4-(1,1-Dimethyl-heptyl)-2,6-dimethoxy-phenyl]-3-methyl-cyclohexanol]",–,Ki (CB2 receptor): 11 ± 2.18 nM; Ki (CB1 receptor): 2670 ± 145 nM
"CCCCCCC(C)(C)c1cc(O)c(C2CCCCC2)c(O)c1 [O-1422, Cyclohexyl-5-(1′,1′-dimethylheptyl)-resorcinol]",7,–
CCCCCCC(C)(C)c1cc(O)c(C2=CCCCC2)c(O)c1 [O-1423],3,–
CCCCCCC(C)(C)c1cc(O)c(C2CCSCC2)c(O)c1 [O-1425],13,fold decrease in CB2 affinity (CB2 receptor; compared to O-1422): 8 fold; fold decrease in CB1 affinity (CB1 receptor; compared to O-1422): 14 fold
"CCCC(C)(C)c1ccc(-c2cc(C)ccc2C(C)C)c(O)c1 [O-1532, 3-1′,1′-Dimethylbutyl-6-(2-isopropyl-5-methyl-phenyl)-phenol]",8,–
"CCCCCCC(C)(C)c1ccc(-c2cc(CO)ccc2C(C)C)c(O)c1 [O-1601, 3-1′,1′-Dimethylhepyl-6-(2-isopropyl-5-hydroxy-methylphenyl)-phenol]",2,–
"CCCCCCC(C)(C)c1cc(O)c(C2CCCCC2C)c(O)c1 (stereo not drawn) [O-1658, 2-(2-Methylcyclohexyl)-5-(1′,1′-dimethylheptyl)-resorcinol]",16,–
"CCCCCCC(C)(C)c1cc(O)c(C2CCC(C)CC2)c(O)c1 (stereo not drawn) [O-1659, 2-(4-Methylcyclohexyl)-5-(1′,1′-dimethylheptyl)-resorcinol]",9,–
"CCCCCCC(C)(C)c1cc(O)c(C2C3CC4CC(C3)CC2C4)c(O)c1 (stereo not drawn) [O-1660, 2-(2-Adamantanyl)-5-(1′,1′-di-methylheptyl)-resorcinol]",2,Ki (CB2 receptor): 3.16 ± 0.81 nM; Ki (CB1 receptor): 7.5 ± 1.2 nM
"CCCCCCC(C)(C)c1cc(O)c(C2CCC(c3ccccc3)CC2)c(O)c1 (stereo not drawn) [O-1663, 2-(4-Phenylcyclohexyl)-5-(1′,1′-dimethylheptyl)-resorcinol]",16,–
"CCCC(C)(C)c1cc(O)c(C2CCCC(C)C2)c(O)c1 (stereo not drawn) [O-1890, 2-(3-Methylcyclohexyl)-5-(1′,1′-dimethylbutyl)-resorcinol]",7,–
"CCCCCCC(C)(C)c1cc(OC)c(C2CCCC(C)C2)c(OC)c1 (stereo not drawn) [O-1999, 5-(1,1-Dimethyl-heptyl)-1,3-dimethoxy-2-(3-methyl-cyclohexyl)-benzeno]",–,fold reduction in affinity for CB2 receptors (CB2 receptor; compared to O-1657): ~600 fold
"CCCCCCC(C)(C)c1cc(OC)c(C2(O)CCCC(C)(C)C2)c(OC)c1 (stereo not drawn) [O-2068, 1-[4-(1,1-Dimethylheptyl)-2,6-dimethoxyphenyl]3,3-dimethyl-cyclohexanol]",47,–
"CCCCCCC(C)(C)c1cc(OC)c(C2(O)CCCCC2)c(OC)c1 [O-2072, 1-[4-(1,1-Dimethylheptyl)-2,6-dimethoxyphenyl]-cyclohexanol]",55,–
"CCCCCCC(C)(C)c1cc(OCC)c(C2(O)CCCC(C)C2)c(OCC)c1 (stereo not drawn) [O-2090, 1-[4-(1,1-Dimethylheptyl)-2,6-dietlphenyl]-3-methyl cyclohexane-1-ol]",10,–
"CCCCCCC(C)(C)c1cc(OC)c(C2(O)CCCCCC2)c(OC)c1 [O-2091, 1-[4-(1,1-Dimethylheptyl)-2,6-dimephenyl]-cycloheptan-1-ol]",50,–
"CCCCCCC(C)(C)c1cc(OC)c(C2(O)CCC3(CC2)OCCO3)c(OC)c1 [O-2092, 8-[4-(1,1-Dimethylheptyl)-2,6-dimephenyl]-1,4-dioxaspiro[4,5]decan-]",36,–
"CCCCCCC(C)(C)c1cc(OC)c(C2=CCC(=O)CC2)c(OC)c1 [O-2114, 4-[4-(1,1-Dimethyl-heptyl)-2,6-dimethoxy-phenyl]-cyclohex-3-enone]",5,–
CCCCCCC(C)(C)c1cc(OC)c(C2(O)CC(C)CC(O)C2)c(OC)c1 (stereo not drawn) [O-2121],20,–
"CCCCCCC(C)(C)c1cc(OC)c(C23CCC(O)CC2O3)c(OC)c1 (stereo not drawn) [O-2122, 6-[4-(1,1-Dimethyl-heptyl)-2,6-dimethoxy-phenyl]-7-oxa-bicyclo[4 1 0]heptan-3-ol]",4,–
"CCCCCCC(C)(C)c1cc(OC)c(C2(O)CC(=O)CC(C)C2)c(OC)c1 (stereo not drawn) [O-2123, 3-[4-(1,1-Dimethyl-heptyl)-2,6-dimethoxy-phenyl]-3-hydroxy-5-methyl-cyclohexanone]",14,Ki (CB1 receptor): 7330 ± 117 nM
"COc1cc(C)cc(OC)c1C1(O)CCCCC1 [O-2298, 1-(2,6-Dimethoxy-4-methyl-phenyl)-cyclohexanol]",–,Ki (CB2 receptor): > 10000 nM; Ki (CB1 receptor): > 10000 nM
